≈ marks a conversion by molar mass, not a printed value. Where “and” joins values, the source holds several entries; their conditions need not be identical. Equal entries are not always repeated. Where two headings read alike, the source gives them in different places.
Key:
Apophysomyces sp. = test: Antifungal MIC (RPMI-1640 microdilution); assay type: cell-based
Candida auris = test: Antifungal MIC (RPMI-1640 microdilution); assay type: cell-based
Candida guilliermondii = test: Antifungal MIC (RPMI-1640 microdilution); assay type: cell-based; settings: Meyerozyma guilliermondii
P. variotii = test: Antifungal MIC (RPMI-1640 microdilution); assay type: cell-based; settings: Paecilomyces variotii, isolate MYA-3630
Saksenaea sp. = test: Antifungal MIC (RPMI-1640 microdilution); assay type: cell-based
Fusarium sp. = test: Antifungal MIC (RPMI-1640 microdilution); assay type: cell-based
Emergomyces sp. = test: Antifungal MIC (RPMI-1640 microdilution); assay type: cell-based
K. pneumoniae = test: Antibacterial MIC (broth microdilution); assay type: cell-based; settings: Klebsiella pneumoniae
Candida parapsilosis = test: Antifungal MIC (RPMI-1640 microdilution); assay type: cell-based; settings: for MIC50 / MIC: Lodderomyces parapsilosis
Blastomyces dermatitidis = test: Antifungal MIC (RPMI-1640 microdilution); assay type: cell-based
Staphylococcus aureus = test: Antibacterial MIC (broth microdilution); assay type: cell-based
Enterococcus faecalis = test: Antibacterial MIC (broth microdilution); assay type: cell-based
Aspergillus fumigatus = test: Antifungal MIC (RPMI-1640 microdilution); assay type: cell-based
[1] = tested on: Aspergillus fumigatus clinical isolate 293 (Af293); test: Prophylactic efficacy in Aspergillus-infected immunosuppressed mice; assay type: in vivo, ICR mice; settings: 2.5 or 5.0 mg/kg/day oral from day -2 through day +7
Pneumocystis [2] = settings: cited from earlier work; for minimum dose required to reduce parasitemia nearly to zero: two to three week period
P. falciparum = settings: seven strains, three repeat assays; cited from earlier work
Pneumocystis [3] = settings: cited from earlier work
[4] = Tissue distribution of [14C]radio-labeled tafenoquine in male rats; assay type: in vivo, rat; settings: for concentration of tafenoquine in lung: 25 mg base/kg single oral dose
Procedure: FIG. 3: Concentration of tafenoquine in microgram equivalents per g of tissue in various tissues of male rats 12 h following administration of [14C]radio-labeled tafenoquine (25 mg base/kg). Radioactivity was measured in the combusted organs of euthanized rats by liquid scintillation analysis.
In this study, a single oral dose of [14C]radio-labeled tafenoquine (25 mg base/kg) was given to 60 male rats, and then groups of 5 animals were killed at time points ranging from 30 minutes to 120 hours post-dose. Radioactivity in the combusted organs of killed animals was measured by liquid scintillation analysis. When expressed as microgram equivalents tafenoquine per gram of tissue, the concentration of tafenoquine in lung were at 0.5, 1, 6, 12, 24, 48, 72, 96, and 120 hours post-administration were 1.21, 6.43, 133, 154, 136, 119, 83.7, 59.4, and 44.4, respectively.

[5] = female, rat, in vivo, 2 mg/kg
Plasmodium cynomolgi = settings: for three days; cited from earlier work
HCMV strain AD169 = test: CPE assay for HCMV in HFF cells; assay type: cell-based; settings: Human betaherpesvirus 5, AD169
[6] = tested on: RSV, MERS coronavirus and influenza A H1N1; assay type: cell-based
[7] = read-out: MIC 100% inhibition, isolate AF293

COc1cc(C)c2c(Oc3cccc(C(F)(F)F)c3)c(OC)cc(NC(C)CCCN)c2n1.O=C(O)CCC(=O)O (centres unmarked) [Tafenoquine Succinate]
MIC50 (Apophysomyces sp.; read-out: MIC 50% inhibition, isolate Apo1): 8 µg/mL
MIC50 (Apophysomyces sp.; read-out: MIC 50% inhibition, isolate Apo2): 2 µg/mL
MIC50 (Apophysomyces sp.; read-out: MIC 50% inhibition, isolate Apo3): 16 µg/mL
MIC (Apophysomyces sp.; read-out: MIC 100% inhibition, isolate Apo1): 8 µg/mL
MIC (Apophysomyces sp.; read-out: MIC 100% inhibition, isolate Apo2): 4 µg/mL
MIC (Apophysomyces sp.; read-out: MIC 100% inhibition, isolate Apo3): 32 µg/mL
MIC50 (Candida auris; Candidozyma auris, read-out: MIC 50% inhibition, isolate DI17-46): 4 µg/mL
MIC50 (Candida auris; Candidozyma auris, read-out: MIC 50% inhibition, isolate DI17-47): 4 µg/mL
MIC50 (Candida auris; Candidozyma auris, read-out: MIC 50% inhibition, isolate DI17-48): 2 µg/mL
MIC (Candida auris; Candidozyma auris, read-out: MIC 100% inhibition, isolate DI17-47): 4 µg/mL
MIC 100% inhibition (Candida auris; isolate DI17-46): 4 µg/mL
MIC 100% inhibition (Candida auris; isolate DI17-48): 4 µg/mL
MIC50 (Candida guilliermondii; read-out: MIC 50% inhibition, isolate Cgui1): 2 µg/mL
MIC50 (Candida guilliermondii; read-out: MIC 50% inhibition, isolate Cgui2): 2 µg/mL
MIC50 (Candida guilliermondii; read-out: MIC 50% inhibition, isolate Cgui3): 4 µg/mL
MIC (Candida guilliermondii; read-out: MIC 100% inhibition, isolate Cgui1): 4 µg/mL
MIC (Candida guilliermondii; read-out: MIC 100% inhibition, isolate Cgui2): 2 µg/mL
MIC (Candida guilliermondii; read-out: MIC 100% inhibition, isolate Cgui3): 4 µg/mL
MIC50 (P. variotii; read-out: MIC 50% inhibition): 4 µg/mL
MIC (P. variotii; read-out: MIC 100% inhibition): 4 µg/mL
MIC50 (Saksenaea sp.; read-out: MIC 50% inhibition, isolate Sak1): 4 µg/mL
MIC50 (Saksenaea sp.; read-out: MIC 50% inhibition, isolate Sak2): 2 µg/mL
MIC50 (Saksenaea sp.; read-out: MIC 50% inhibition, isolate Sak3): 8 µg/mL
MIC (Saksenaea sp.; read-out: MIC 100% inhibition, isolate Sak1): 8 µg/mL
MIC (Saksenaea sp.; read-out: MIC 100% inhibition, isolate Sak2): 2 µg/mL
MIC (Saksenaea sp.; read-out: MIC 100% inhibition, isolate Sak3): 8 µg/mL
MIC50 (Fusarium sp.; read-out: MIC 50% inhibition, isolate FO1): 8 µg/mL
MIC50 (Fusarium sp.; read-out: MIC 50% inhibition, isolate FS2): 16 µg/mL
MIC50 (Fusarium sp.; read-out: MIC 50% inhibition, isolate FSI): 8 µg/mL
MIC (Fusarium sp.; read-out: MIC 100% inhibition, isolate FO1): 16 µg/mL
MIC (Fusarium sp.; read-out: MIC 100% inhibition, isolate FS2): 16 µg/mL
MIC (Fusarium sp.; read-out: MIC 100% inhibition, isolate FSI): 16 µg/mL
MIC 100% inhibition (Emergomyces sp.; isolate Emerg3): 4 µg/mL
MIC50 (Emergomyces sp.; read-out: MIC 50% inhibition, isolate Emerg2): 4 µg/mL
MIC50 (Emergomyces sp.; read-out: MIC 50% inhibition, isolate Emerg3): 2 µg/mL
MIC (Emergomyces sp.; read-out: MIC 100% inhibition, isolate Emerg2): 4 µg/mL
MIC (K. pneumoniae; ATCC70063, isolate ATCC 70063): > 64 µg/mL
MIC (K. pneumoniae; isolate AR-97): > 64 µg/mL
MIC (K. pneumoniae; isolate AR-113): > 64 µg/mL
MIC50 (Candida parapsilosis; ATCC22019, read-out: MIC 50% inhibition, isolate ATCC 22019): 4 µg/mL
MIC (Candida parapsilosis; ATCC22019, read-out: MIC 100% inhibition, isolate ATCC 22019): 4 µg/mL
MIC50 (Candida parapsilosis; read-out: MIC 50% inhibition, isolate CP1): 4 µg/mL
MIC (Candida parapsilosis; read-out: MIC 100% inhibition, isolate CP1): 4 µg/mL
MIC (Candida parapsilosis; read-out: MIC 100% inhibition, isolate CP2): 4 µg/mL
MIC (Candida parapsilosis; read-out: MIC 100% inhibition, isolate CP3): 8 µg/mL
MIC 50% inhibition (Candida parapsilosis; isolate CP2): 4 µg/mL
MIC 50% inhibition (Candida parapsilosis; isolate CP3): 4 µg/mL
MIC50 (Blastomyces dermatitidis; read-out: MIC 50% inhibition, isolate Blasto1): 1 µg/mL
MIC50 (Blastomyces dermatitidis; read-out: MIC 50% inhibition, isolate Blasto2): 4 µg/mL
MIC50 (Blastomyces dermatitidis; read-out: MIC 50% inhibition, isolate Blasto3): 8 µg/mL
MIC (Blastomyces dermatitidis; read-out: MIC 100% inhibition, isolate Blasto1): 2 µg/mL
MIC (Blastomyces dermatitidis; read-out: MIC 100% inhibition, isolate Blasto2): 4 µg/mL
MIC (Blastomyces dermatitidis; read-out: MIC 100% inhibition, isolate Blasto3): 8 µg/mL
MIC (Staphylococcus aureus; Staphylococcus aureus, ATCC29213, isolate ATCC 29213, read-out: MIC): 8 µg/mL
MIC (Staphylococcus aureus; Staphylococcus aureus, isolate 6215, read-out: MIC): 8 µg/mL
MIC (Staphylococcus aureus; isolate 6229): 8 µg/mL
MIC (Enterococcus faecalis; ATCC29212, isolate ATCC 29212): 8 µg/mL
MIC (Enterococcus faecalis; isolate 1768): 8 µg/mL
MIC50 (Aspergillus fumigatus; read-out: MIC 50% inhibition, isolate AF293): 8 µg/mL
MIC50 (Aspergillus fumigatus; read-out: MIC 50% inhibition, isolate D115-106): 4 µg/mL
MIC50 (Aspergillus fumigatus; read-out: MIC 50% inhibition, isolate D115-116): 4 µg/mL
MIC (Aspergillus fumigatus; [7]): 16 µg/mL
MIC (Aspergillus fumigatus; read-out: MIC 100% inhibition, isolate D115-106): 8 µg/mL
MIC (Aspergillus fumigatus; read-out: MIC 100% inhibition, isolate D115-116): 4 µg/mL

COc1cc(C)c2c(Oc3cccc(C(F)(F)F)c3)c(OC)cc(NC(C)CCCN)c2n1 (centres unmarked) [Tafenoquine, N(4)-[2,6-Dimethoxy-4-methyl-5-[3-(trifluoromethyl)phenoxy]quinolin-8-yl]pentane-1,4-diamine]
pulmonary fungal burden [1]: dose-related, albeit non-statistically significant trend towards reduced fungal burden
survival versus vehicle control ([1]; followed until day 12): no statistical differences in survival
minimum dose required to reduce parasitemia nearly to zero (Pneumocystis [2]; prophylaxis, once every 4 days orally): 4 mg/kg
Dose in female rats required to exhibit a statistically significant impairment of Pneumocystis replication (Pneumocystis [2]; treatment modality): 2 mpk q 4 days and 2 mpk q 4 mpk q 4 days
minimum dose required to reduce parasitemia nearly to zero (Pneumocystis [2]; treatment, daily orally): 4 mg/kg/day
fold more potent than primaquine (average 50% inhibitory concentrations) (P. falciparum): 7.1 fold
Approximate EC50 of tafenoquine against Pneumocystis in vitro (Pneumocystis [3]): ~1 µg/mL
concentration of tafenoquine in lung ([4]; 0.5 hours post-administration): 1.21 microgram equivalents tafenoquine per gram of tissue
concentration of tafenoquine in lung ([4]; 1 hour): 6.43 microgram equivalents tafenoquine per gram of tissue
concentration of tafenoquine in lung ([4]; 6 hours): 133 microgram equivalents tafenoquine per gram of tissue
concentration of tafenoquine in lung ([4]; 12 hours): 154 microgram equivalents tafenoquine per gram of tissue
concentration of tafenoquine in lung ([4]; 24 hours): 136 microgram equivalents tafenoquine per gram of tissue
concentration of tafenoquine in lung ([4]; 48 hours): 119 microgram equivalents tafenoquine per gram of tissue
concentration of tafenoquine in lung ([4]; 72 hours): 83.7 microgram equivalents tafenoquine per gram of tissue
concentration of tafenoquine in lung ([4]; 96 hours): 59.4 microgram equivalents tafenoquine per gram of tissue
concentration of tafenoquine in lung ([4]; 120 hours): 44.4 microgram equivalents tafenoquine per gram of tissue
lung:blood concentration ratio ([4]; rat): 250
ratio of lung:plasma concentrations ([4]; rat): ~650
tissue accumulation ([4]; rat, FIG. 3): accumulate in lung more than any other tissue in the body
Estimate of plasma concentration following a single dose of 2 mpk in rats [5]: 35.84 ng/mL
dose required to eliminate the replicating blood stage forms (Plasmodium cynomolgi): 6 mg/kg/day
dose required to kill the quiescent hypnozoites (Plasmodium cynomolgi): 0.6 mg/kg/day
EC50 (HCMV strain AD169): > 6 µM
MIC (Aspergillus fumigatus; [7]): 16 µg/mL (≈ 34.5 µM)
antiviral activity [6]: too cytotoxic to the cell lines used to determine whether antiviral activity was present

Source: patent US12691107B2, “Methods for the treatment and prevention of lung infections caused by gram-positive bacteria, fungus, or virus by administration of tafenoquine” (priority 2020, dated 2026)
